# Results published in ChEMBL document CHEMBL1153237, “3-(3-Aryloxyaryl)imidazo[1,2-a]pyridine sulfones as liver X receptor agonists” (Bioorg Med Chem Lett, 2010).
# Columns and labels:
# [1] = Solubility of the compound; assay type: physicochemical
# [2] = Cmax in C57 mouse at 10 mg/kg, po; assay type: ADME, organism-based; parameters: dose 10 mg/kg, route oral; details: in vivo
# [3] = AUC (0 to last) in C57 mouse at 10 mg/kg, po; assay type: ADME, organism-based; parameters: dose 10 mg/kg, route oral, time 0 - last; details: plasma
# [4] = Tmax in C57 mouse at 10 mg/kg, po; assay type: ADME, organism-based; parameters: dose 10 mg/kg, route oral; details: in vivo
# [5] = target: T1, Oxysterols receptor LXR-beta (Homo sapiens, UniProt P55055); details: huh-7
# [6] = target: T2, Oxysterols receptor LXR-alpha (Homo sapiens, UniProt Q13133)
# T2 sequence (Q13133 whole entry): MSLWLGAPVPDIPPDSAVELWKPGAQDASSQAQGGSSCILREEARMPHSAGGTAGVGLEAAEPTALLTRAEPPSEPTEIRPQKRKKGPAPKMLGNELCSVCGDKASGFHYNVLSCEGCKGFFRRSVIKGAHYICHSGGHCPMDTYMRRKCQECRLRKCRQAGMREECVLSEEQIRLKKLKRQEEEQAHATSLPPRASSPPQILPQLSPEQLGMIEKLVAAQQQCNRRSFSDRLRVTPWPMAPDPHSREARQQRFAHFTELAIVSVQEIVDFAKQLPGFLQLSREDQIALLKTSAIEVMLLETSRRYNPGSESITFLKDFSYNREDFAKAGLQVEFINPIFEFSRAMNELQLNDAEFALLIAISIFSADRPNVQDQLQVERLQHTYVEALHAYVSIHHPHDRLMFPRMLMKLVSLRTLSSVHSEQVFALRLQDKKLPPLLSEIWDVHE
# [7] = target: T2, Oxysterols receptor LXR-alpha; details: huh-7
# [8] = target: T1, Oxysterols receptor LXR-beta
# [9] = Tmax in C57 mouse at 2.5 mg/kg, po; assay type: ADME, organism-based; parameters: dose 2.5 mg/kg, route oral; details: in vivo
# [10] = AUC (0 to last) in C57 mouse at 2.5 mg/kg, po; assay type: ADME, organism-based; parameters: time 0 - last, dose 2.5 mg/kg, route oral; details: plasma
# [11] = Cmax in C57 mouse at 2.5 mg/kg, po; assay type: ADME, organism-based; parameters: dose 2.5 mg/kg, route oral; details: in vivo
# [12] = Half life in mouse liver microsomes; assay type: ADME, Microsome
# [13] = Half life in human liver microsomes; assay type: ADME, Microsome
# HepG2 [14] = experiment: Cytotoxic effect as decreased triglyceride level in HepG2 cells after 3 uM treatment; assay type: cell-based; details: human, hepg2, 3 µM
# HepG2 [15] = experiment: Cytotoxic effect as decreased triglyceride level in HepG2 cells after 10 uM treatment; assay type: cell-based; details: human, hepg2, 10 µM
# [16] = Half life in rat liver microsomes; assay type: ADME, Microsome
# THP-1 [17] = experiment: cells; details: Homo sapiens
# [18] = Half life in C57 mouse at 10 mg/kg, po; assay type: ADME, organism-based; parameters: dose 10 mg/kg, route oral; details: in vivo
# THP-1 [19] = experiment: Induction of ABCA1 mRNA upregulation in human THP1 cells relative to T0901317; assay type: functional
# HepG2 [20] = experiment: cells; details: Homo sapiens
# HepG2 [21] = experiment: Increase in cellular triglyceride level in human HepG2 cells relative to T0901317; assay type: functional
# T1 sequence (P55055 whole entry): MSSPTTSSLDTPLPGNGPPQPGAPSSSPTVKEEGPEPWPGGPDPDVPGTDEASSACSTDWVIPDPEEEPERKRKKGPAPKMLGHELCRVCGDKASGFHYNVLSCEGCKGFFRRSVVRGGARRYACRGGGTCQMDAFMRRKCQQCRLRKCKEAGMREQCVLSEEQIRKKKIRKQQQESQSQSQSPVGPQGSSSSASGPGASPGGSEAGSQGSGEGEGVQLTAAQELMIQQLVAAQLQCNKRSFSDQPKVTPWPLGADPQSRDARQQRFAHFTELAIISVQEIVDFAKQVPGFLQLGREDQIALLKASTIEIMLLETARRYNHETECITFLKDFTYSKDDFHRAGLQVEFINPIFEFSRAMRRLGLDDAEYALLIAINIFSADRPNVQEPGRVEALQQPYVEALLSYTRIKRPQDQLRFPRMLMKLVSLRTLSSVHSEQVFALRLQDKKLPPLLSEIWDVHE
Compound,solubility [1],half-life [12],half-life [13],half-life [16],EC50 (THP-1 [17]),EC50 (HepG2 [20]),Efficacy (THP-1 [19]),Efficacy (HepG2 [21]),further results
Cc1nc2c(C(F)(F)F)cccc2n1-c1cccc(Oc2cccc(S(C)(=O)=O)c2)c1,214 µg/mL,,,,,,,,Cmax [2]: 614 ng/mL; AUC(0-t) [3]: 8940 ng·h/mL; Tmax [4]: 120 min
CC(C)c1nc2c(C(F)(F)F)cccn2c1-c1ccc(-c2cccc(S(C)(=O)=O)c2)cc1,,,,,,,,,EC50 [5]: Not Active
CC(C)c1nc2c(C(F)(F)F)cccn2c1-c1ccc(-c2ccc(S(C)(=O)=O)cc2)cc1,,,,,,,,,EC50 [5]: Not Active; IC50 [6]: > 1000 nM; EC50 [7]: Not Active; IC50 [8]: > 1000 nM
Cc1cnc2c(C(F)(F)F)cccc2c1-c1cccc(Oc2cccc(S(C)(=O)=O)c2)c1,< 1 µg/mL,,,,,,,,Tmax [9]: 120 min; AUC(0-t) [10]: 1690 ng·h/mL; Cmax [11]: 457 ng/mL
CCS(=O)(=O)c1cccc(Oc2cccc(-c3c(C)nc4c(C(F)(F)F)cccn34)c2)c1,68 µg/mL,30 min,21 min,30 min,130 nM,,100%,,Cmax [2]: 1420 ng/mL; AUC(0-t) [3]: 7790 ng·h/mL; Decreased_triglyceride (HepG2 [14]): Cytotoxic potential; Decreased_triglyceride (HepG2 [15]): Cytotoxic potential; Tmax [4]: 60 min; half-life [18]: 366 min
Cc1nc2c(C(F)(F)F)cccn2c1-c1cccc(Oc2cccc(S(C)(=O)=O)c2)c1,> 100 µg/mL,30 min,30 min,30 min,125 nM,72 nM,99%,8%,Cmax [2]: 1140 ng/mL; AUC(0-t) [3]: 4670 ng·h/mL; Decreased_triglyceride (HepG2 [14]): Cytotoxic potential; Tmax [4]: 15 min; half-life [18]: 270 min
CC(C)c1nc2c(C(F)(F)F)cccn2c1-c1cccc(OCc2ccc(S(C)(=O)=O)cc2)c1,,,,,,,,,IC50 [6]: > 1000 nM; IC50 [8]: > 1000 nM
CCc1nc2c(C(F)(F)F)cccn2c1-c1cccc(Oc2cccc(S(C)(=O)=O)c2)c1,228 µg/mL,20 min,30 min,30 min,243 nM,227 nM,65%,38%,
CS(=O)(=O)c1cccc(Oc2cccc(-c3c(Cc4ccccc4)nc4c(C(F)(F)F)cccn34)c2)c1,3 µg/mL,2 min,19 min,7 min,120 nM,65 nM,105%,81%,
CS(=O)(=O)c1cccc(Oc2cccc(-c3c(CN4CCCCC4)nc4c(C(F)(F)F)cccn34)c2)c1,73 µg/mL,2 min,3 min,5 min,44 nM,128 nM,100%,26%,
CS(=O)(=O)c1cccc(Oc2cccc(-c3c(CN4CCSC4)nc4c(C(F)(F)F)cccn34)c2)c1,1 µg/mL,3 min,6 min,23 min,10 nM,42 nM,98%,36%,
O=S(=O)(c1ccccc1)N(CC(F)(F)F)c1ccc(C(O)(C(F)(F)F)C(F)(F)F)cc1 [T091317],,30 min,30 min,30 min,,,100%,,
